Results on eight compounds are retold here after PubChem BioAssay (NCI).

What all share (assay): NCI anticancer screen, dose series, 48 h
Assay [1] has as its system SNB-19 CNS.
Assay [2] has as its system TK-10 renal.
In assay [3] the test system is OVCAR-4 ovarian.
The test system of assay [4] is ACHN renal.
Assay [5] relates to 786-0 renal.
The test system of assay [6] is NCI-H460 lung.
The test system of assay [7] is NCI-H23 lung.
The test system of assay [8] is RXF 393 renal.
Assay [9] deals with CCRF-CEM leukemia.
Assay [10] has as its system MDA-MB-231 breast.

Molecules are shown by their SMILES. “And” between values parts separate entries of the source, which are not always exact repeats. Equal entries are not always repeated.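 Exposure lasted 48 hours, with cells grown in 96-well plates and compounds tested at five concentrations. Abbreviation: GI50, concentration required for 50% inhibition of growth. TGI: concentration producing complete growth inhibition.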

For the compound `C#Cc1cccc(NC(=O)c2ccc(NC(=O)CCl)cc2)c1`, the GI50 is 55.6 µM in [1]; 42.7 µM in [2]; 16.7 µM in [3]; 26.3 µM in [4]; 14.6 µM in assay [5]; 29.2 µM in [6]. The GI50 in assay [7] was 14.9 µM; in [8], 23.9 µM; in assay [9], 7.37 µM; in [10], 24 µM. Also, the TGI was over 82.5 µM in assay [1]; over 82.5 µM in assay [2]; 72 µM in assay [3]; over 82.5 µM in [4]; 29.8 µM in [5]; over 82.5 µM in assay [6]. Besides, the TGI in assay [7] is 38.4 µM; in [8], over 82.5 µM; in assay [9], 32.4 µM; in assay [10] it was over 82.5 µM.

Regarding `O=C(O[C@H]1CCN2C[C@H]3C[C@H](CN4C(=O)CCC[C@H]34)[C@@H]2C1)c1ccc(O)cc1`, the TGI in [1], in [2], in [3], in assay [4], in [5] and in [6] was over 100 µM throughout. Besides, the TGI in assay [7], in assay [8], in assay [9] and in assay [10] was over 100 µM in each case.

Turning to `CN1CCN(Cc2ccc(NC(=O)c3cncc(C#Cc4cnc(N)c5cnccc45)c3)cc2C(F)(F)F)CC1`, the GI50 in [1] was 1.76 µM; in assay [2], 0.436 µM; in [3], 0.129 µM; in assay [4], 0.201 µM; in assay [5] it was 0.314 µM; in [6] it was 0.218 µM. Also, the GI50 is 0.189 µM in assay [7], 0.147 µM in assay [8], 0.335 µM in assay [9] and 0.0722 µM in assay [10]. Further, the TGI in [1] is 10.9 µM; in [2] it was 6.73 µM; in assay [3], 7.52 µM; in [4], 1.43 µM; in assay [5] it was 7.73 µM; in [6], 3.31 µM. The TGI in assay [7] stood at 3.81 µM; in assay [8], 0.565 µM; in assay [9], 8.71 µM; in assay [10] it was 0.223 µM.

Regarding `O=[N+]([O-])c1ccc(Sc2ccncn2)c([N+](=O)[O-])c1`, the GI50 in assay [1] was 10.1 µM; in assay [2] it was 3.03 µM; in assay [3], 2.78 µM; in [4], 2.16 µM; in assay [5] it was 2.24 µM; in [6], 3.18 µM. The GI50 was 2.93 µM in assay [7], 3.99 µM in assay [8], 0.504 µM in [9] and 7.79 µM in assay [10]. Moreover, the TGI was found to be 23.7 µM in assay [1]; 9.88 µM in assay [2]; 11.3 µM in assay [3]; 5.82 µM in [4]; 4.89 µM in assay [5]; 10.8 µM in [6]. Further, the TGI in assay [7] is 9.73 µM; in assay [8] it was 11.7 µM; in [9], 6.13 µM; in [10], 20.8 µM.

`Cc1cc(=O)oc2cc(OC/C=C3\CCC(=O)O3)ccc12`: the GI50 in assay [1] is 15.5 µM; in [2] it was 12.2 µM; in assay [3], 15.8 µM; in assay [4], 5.05 µM; in assay [5], 10.5 µM; in assay [6] it was 19.3 µM. For the same compound, the GI50 in [7] is 14.4 µM; in assay [8] it was 13.1 µM; in [9] it was 3.96 µM; in assay [10] it was 16.9 µM. Further, the TGI was 49.2 µM in assay [1]; 27.2 µM in [2]; 37.4 µM in assay [3]; 15.4 µM in [4]; 44.1 µM in assay [5]; over 62.7 µM in assay [6]. In addition, the TGI was 29.9 µM in assay [7], 31.9 µM in assay [8], 30.3 µM in [9] and 34.7 µM in assay [10].

`COc1cccc2c1C(=O)c1c(O)c3c(c(O)c1C2=O)CC(O)(C(=O)CO)CC3OC1CC(N)C(O)C(C)O1` (stereo not drawn): the GI50 is 2.04 µg/mL and 54.6 µg/mL in assay [1]; 75 µg/mL and 30 µg/mL in [2]; 46.6 µg/mL and > 150 µg/mL in [3]; 20.2 µg/mL and 12.2 µg/mL in [4]; 6.54 µg/mL and 10.4 µg/mL in [5]; 0.709 µg/mL and 0.986 µg/mL in assay [6]. Further, the GI50 in [7] is 11.3 µg/mL and 49.1 µg/mL; in assay [8] it was 13.3 µg/mL and > 150 µg/mL; in assay [9] it was 0.801 µg/mL and 4.97 µg/mL; in assay [10] it was 44.1 µg/mL and 79.3 µg/mL. Further, the TGI in assay [1] is 75 µg/mL and > 150 µg/mL; in assay [2], 75 µg/mL and > 150 µg/mL; in [3], 75 µg/mL and > 150 µg/mL; in assay [4], 75 µg/mL and > 150 µg/mL; in assay [5] it was 75 µg/mL and > 150 µg/mL; in assay [6] it was 75 µg/mL and 27.3 µg/mL. In addition, the TGI in assay [7] is 75 µg/mL and > 150 µg/mL; in [8], 75 µg/mL and > 150 µg/mL; in assay [10], 75 µg/mL and > 150 µg/mL.

In the case of `C[C@@H](Oc1cc(-n2cnc3ccc(OC[C@@H](O)CO)cc32)sc1C(N)=O)c1ccccc1Cl`, the GI50 in assay [1] was 0.339 µM; in [2], 0.894 µM; in assay [3], 4.15 µM; in assay [4], 6.11 µM; in assay [5] it was 0.669 µM; in assay [6] it was 0.227 µM. In addition, the GI50 in assay [7] was 0.14 µM; in assay [8], 0.0653 µM; in assay [9], 0.0127 µM; in assay [10], 0.416 µM. For the same compound, the TGI in assay [1] was over 25 µM; in [2], 10.7 µM; in assay [3], over 25 µM; in assay [4] it was over 25 µM; in [5], over 25 µM; in assay [6] it was over 25 µM. For the same compound, the TGI in assay [7] is over 25 µM; in [8], 2.08 µM; in assay [9], 24.6 µM; in assay [10] it was over 25 µM.

Take `CC1(C)N=C(N)N=C(N)N1c1cccc(Br)c1`: the GI50 in assay [1] was 1.68 µM; in [3], 8.66 µM; in assay [4], 0.786 µM; in [5] it was 0.093 µM; in assay [6], 0.435 µM; in assay [7] it was 0.564 µM. The GI50 was over 23.1 µM in assay [8], 2.24 µM in [9] and over 100 µM in assay [10]. The TGI in [1], in assay [2], in assay [3], in assay [4], in assay [5] and in assay [6] was over 100 µM each time. The TGI in [7], in [8], in assay [9] and in [10] was over 100 µM throughout.
